Experimental data: US3983239A, “Hexahydro-γ-carboline derivatives and their salts” (priority 1974, dated 1976)
“Also recorded” adds a separate entry of the source. Where two headings read alike, the source gives them in different places.

Key:
[1] = system: apomorphine-induced gnawing; assay: Enhancement of apomorphine-induced gnawing; format: in vivo; conditions: 0.03-0.7 mg/kg s.c., rats
self-stimulation = assay: Inhibiting activity of self-stimulation, rats; format: in vivo; conditions: Rattus norvegicus, po; rats, p.o.; read-out: ED50 value, inhibiting activity of self-stimulation
From the text: 8) J. Olds et al; J. Comp. Physiol. Psychol., Vol. 47, page

catalepsy = assay: Cataleptogenic activity, rats; format: in vivo; conditions: Rattus norvegicus, po; rats, p.o.; read-out: ED50 value, cataleptogenic activity
muscle relaxant activity = assay: Muscle relaxant activity, rats; format: in vivo; conditions: Rattus norvegicus, rats, read-out: ED50 value, muscle relaxant activity
[2] = system: conditioned avoidance response; assay: Inhibiting activity of conditioned avoidance response, rats (Shuttle box method); format: in vivo; conditions: Rattus norvegicus, po; rats, p.o.; read-out: ED50 value, inhibiting activity of conditioned avoidance response
locomotion [3] = assay: Inhibiting activity of locomotion, rats (Open-field method); format: in vivo; conditions: Rattus norvegicus, rats, read-out: ED50 value, inhibiting activity of locomotion
From the text: 3) Open-field method [C.S. Hall; J. Comp. Physiol. Psychol.

Acute toxicity, rats = conditions: rat, in vivo, male, observed 7 days
From the text: (§1) Male and female STD-dd Y mice, weighing 20 to 22 g (each group: 10 mice) and male Wistar HLA rats, weighing 250 to 300 g (each group: 10 to 20 rats) were used.

[4] = system: homovanillic acid (HVA) in brain; assay: Effect on homovanillic acid (HVA) in brain; format: in vivo, male Wistar rats; conditions: Rattus norvegicus, read-out: dose that remarkably increased the HVA in the brain
Procedure: 3. Effect on homovanillic acid (HVA for short) in brain
This test was carried out by a modified method of T. Karasawa et al. [Life Sci., Vol. 15, page 1465 (1974)].
To male Wistar rats, weighing 160 to 200 g (each group: 5 rats), was administered 8-methyl-2-[γ-(p-fluorobenzoyl)propyl]-2,3,4,4a,5,9b-hexahydro-1H-pyrido[4,3-b]indole dihydrochloride (Compound A) intraperitoneally or orally. After 90 minutes in case of the intraperitoneal administration, or after 6 hours in case of the oral administration, the test animals were decapitated, and then the HVA in the brain was measured by a fluorometric method.

central nervous system = assay: Depression of the central nervous system (overall); conditions: in vivo
From the text: 2. Depression of the central nervous system The compounds of the present invention show the same central nervous system depressing pattern as the existing neuroleptics, such as an inhibiting activity of locomotion, an inhibiting activity of conditioned avoidance response, a cataleptogenic activity, a muscle relaxant activity, an inhibiting activity of self-stimulation, and an anti-methamphetamine activity in terms of locomotor activity.

[5] = system: methamphetamine-induced stereotypy; assay: Potentiation of methamphetamine-induced stereotypy; format: in vivo, male Wistar HLA rats; set-up: key: ---: Marked antagonism; --: Moderate antagonism; -: Slight antagonism; 0: No interaction; +: Slight potentiation; ++: Moderate potentiation; +++: Marked potentiation; conditions: methamphetamine 2 mg/kg i.p.
Procedure: 1. Potentiation of methamphetamine-induced stereotypy
This test was carried out by a modified method of R. T. Naylor (Life Sci., Vol. 10, page 909, 1971).
To male Wistar HLA rats, weighing 200 to 250 g (each group: 6 rats), were intraperitoneally administered the compounds to be tested. After 20 minutes, methamphetamine (2 mg/kg) was intraperitoneally administered to the test animals, and then the appeared stereotypy was observed. The effects of the test compounds were evaluated by the intensity of the stereotypy and the termination thereof.

Acute toxicity, mice = conditions: mouse, in vivo, observed 7 days
From the text: as §1

[6] = system: conditioned avoidance response; assay: Inhibiting activity of conditioned avoidance response, mice; format: in vivo; conditions: Mus musculus, po; mice, p.o.; read-out: ED50 value, inhibiting activity of conditioned avoidance response
[7] = system: electroencephalogram (EEG); assay: Activation of the electroencephalogram (EEG); format: in vivo; conditions: 5 mg/kg i.v., gallamine immobilized cats
locomotion [8] = assay: Inhibiting activity of locomotion, mice (Animex method); format: in vivo; conditions: Mus musculus, po; mice, p.o.; read-out: ED50 value, inhibiting activity of locomotion
[9] = cited from earlier work
amphetamine = conditions: in vivo; cited from earlier work

For `Cc1ccc2c(c1)C1CN(CCCC(=O)c3ccc(F)cc3)CCC1N2.Cl.Cl` (stereo not drawn) [Compound A, 8-Methyl-2-[γ-(p-fluorobenzoyl)propyl]-2,3,4,4a,5,9b-hexahydro-1H-pyrido[4,3-b]indole dihydrochloride], the “incidence of gnawing after apomorphine” value [1] was “increased the incidence of gnawing”, the ED50 (self-stimulation) was 61.8 mg/kg and the ED50 (catalepsy) was 34 mg/kg. It also gave an ED50 (muscle relaxant activity; ip, i.p.) of 3.16 mg/kg, an ED50 (muscle relaxant activity; po, p.o.) of 11.2 mg/kg and an ED50 [2] of 23.8 mg/kg. For the same molecule, the ED50 (locomotion [3]; ip, i.p.) was 2.8 mg/kg, the ED50 (locomotion [3]; po, p.o.) was 33.2 mg/kg and the LD50 at 168 h (Acute toxicity, rats; ip) was 146 mg/kg. It also gave an LD50 at 168 h (Acute toxicity, rats; iv) of 51 mg/kg, an LD50 at 168 h (Acute toxicity, rats; po) of 812 mg/kg and an LD50 at 168 h (Acute toxicity, rats; sc) of 592 mg/kg. The minimal effective dose ([4]; ip, 1.5 h, i.p., 90 minutes after administration) was at least 5 mg/kg, the minimal effective dose ([4]; po, 6 hours after administration) was at least 13 mg/kg and the “central nervous system depressing activities (in words)” value (central nervous system; dihydrochloride) was “somewhat inferior to those of chlorpromazine; also recorded: almost comparable to those of clozapine; also recorded: far superior to those of dicarbine”. For the same molecule, the “Stereotypy Intensity” value ([5]; 1.0 mg/kg i.p.) was 0, the “Stereotypy Termination” value ([5]; 1.0 mg/kg i.p.) was 0 and the “Stereotypy Intensity” value ([5]; 2.0 mg/kg i.p.) was “++”. The “Stereotypy Termination” value ([5]; 2.0 mg/kg i.p.) was “++”, the “Stereotypy Intensity” value ([5]; 5.0 mg/kg i.p.) was “+++” and the “Stereotypy Termination” value ([5]; 5.0 mg/kg i.p.) was “+++”. For the same molecule, the “Stereotypy Intensity” value ([5]; 10.0 mg/kg i.p.) was “+++”, the “Stereotypy Termination” value ([5]; 10.0 mg/kg i.p.) was “+++” and the LD50 at 168 h (Acute toxicity, mice; ip, female) was 95 mg/kg. It also gave an LD50 at 168 h (Acute toxicity, mice; ip, male) of 134 mg/kg, an LD50 at 168 h (Acute toxicity, mice; iv, male) of 59 mg/kg and an LD50 at 168 h (Acute toxicity, mice; po, female) of 339 mg/kg. For the same molecule, the LD50 at 168 h (Acute toxicity, mice; po, male) was 589 mg/kg, the LD50 at 168 h (Acute toxicity, mice; sc, male) was 373 mg/kg and the ED50 [6] was 10 mg/kg. For the same molecule, the “spontaneous EEG, arousal time in the hippocampus” value [7] was “prolongation of arousal time in the hippocampus”, the “spontaneous EEG, cortex” value [7] was “low-voltage high frequency in the cortex” and the ED50 (locomotion [8]) was 9.3 mg/kg.

For `Cc1ccc2c(c1)C1CN(C)CCC1N2` (stereo not drawn) [Dicarbine, 2,8-dimethyl-2,3,4,4a,5,9b-hexahydro-1H-pyrido[4,3-b]indole], the ED50 (self-stimulation) was over 100 mg/kg, the ED50 (catalepsy) was over 100 mg/kg and the ED50 (muscle relaxant activity; ip, i.p.) was 60.3 mg/kg. For the same molecule, the ED50 (muscle relaxant activity; po, p.o.) was over 100 mg/kg, the ED50 [2] was over 100 mg/kg and the ED50 (locomotion [3]; ip, i.p.) was 28.7 mg/kg. The ED50 (locomotion [3]; po, p.o.) was over 200 mg/kg, the “central nervous system depressing activities (in words)” value (central nervous system) was “far weak in comparison with those of the present compounds” and the “activity in clinical trials” value [9] was “antipsychotic activity and a thymoleptic activity”. The “Stereotypy Intensity” value ([5]; 1.0 mg/kg i.p.) was 0, the “Stereotypy Termination” value ([5]; 1.0 mg/kg i.p.) was 0 and the “Stereotypy Intensity” value ([5]; 2.0 mg/kg i.p.) was “+”. The “Stereotypy Termination” value ([5]; 2.0 mg/kg i.p.) was “++”, the “Stereotypy Intensity” value ([5]; 5.0 mg/kg i.p.) was “++” and the “Stereotypy Termination” value ([5]; 5.0 mg/kg i.p.) was “+++”. For the same molecule, the “Stereotypy Intensity” value ([5]; 10.0 mg/kg i.p.) was “+++”, the “Stereotypy Termination” value ([5]; 10.0 mg/kg i.p.) was “+++” and the activity against amphetamine (amphetamine) was “antagonism against amphetamine and also an activity of potentiating the amphetamine-induced stereotypy”. It also gave an LD50 at 168 h (Acute toxicity, mice; ip, male) of 153 mg/kg, an LD50 at 168 h (Acute toxicity, mice; iv, male) of 79 mg/kg and an LD50 at 168 h (Acute toxicity, mice; po, male) of 357 mg/kg. The LD50 at 168 h (Acute toxicity, mice; sc, male) was 237 mg/kg, the ED50 [6] was 119 mg/kg and the ED50 (locomotion [8]) was 150 mg/kg.
